Test results taken from paper PMC9465062, “Exploring potential antidiabetic and anti-inflammatory flavonoids from Euphorbia humifusa with an integrated strategy” (Frontiers in Pharmacology, 2022).
“And” between values parts separate entries of the source, which are not always exact repeats. Equal values may be shown once. Read-outs that look alike come from different tables or passages of the source. Marks after values point to notes of the source that are not given here.

What was measured:
[1] = DPPH free radical scavenging assay; details: mean ± SD, n = 3
Procedure: (§1) The antioxidant activity of our samples was ascertained by evaluating their capacity to scavenge free radicals and reduce ferric ions. The DPPH and ABTS free radical scavenging assays were performed as per the method of Xu and his colleagues ([Xu et al., 2019]). Vit C, Trolox, and BHT were utilized as positive controls whereas pure methanol was for the blank control. The scavenging rate was calculated using the equation: Scavenging rate (%) =(A0 −AS)/A0× 100% With A 0 and As are ascribed to the absorbance value of the blank control, and the tested sample or positive control respectively. The results were expressed in IC50 values (n = 3, mean ± standard deviation).

COX-2 [2] = target: T1, COX-2 (Homo sapiens, UniProt P35354); experiment: Bio-affinity ultrafiltration UPLC/QTOF-MS with COX-2; details: SB = Aactive/Ainactive, ligands from EHNB
T1 sequence (P35354 18-604): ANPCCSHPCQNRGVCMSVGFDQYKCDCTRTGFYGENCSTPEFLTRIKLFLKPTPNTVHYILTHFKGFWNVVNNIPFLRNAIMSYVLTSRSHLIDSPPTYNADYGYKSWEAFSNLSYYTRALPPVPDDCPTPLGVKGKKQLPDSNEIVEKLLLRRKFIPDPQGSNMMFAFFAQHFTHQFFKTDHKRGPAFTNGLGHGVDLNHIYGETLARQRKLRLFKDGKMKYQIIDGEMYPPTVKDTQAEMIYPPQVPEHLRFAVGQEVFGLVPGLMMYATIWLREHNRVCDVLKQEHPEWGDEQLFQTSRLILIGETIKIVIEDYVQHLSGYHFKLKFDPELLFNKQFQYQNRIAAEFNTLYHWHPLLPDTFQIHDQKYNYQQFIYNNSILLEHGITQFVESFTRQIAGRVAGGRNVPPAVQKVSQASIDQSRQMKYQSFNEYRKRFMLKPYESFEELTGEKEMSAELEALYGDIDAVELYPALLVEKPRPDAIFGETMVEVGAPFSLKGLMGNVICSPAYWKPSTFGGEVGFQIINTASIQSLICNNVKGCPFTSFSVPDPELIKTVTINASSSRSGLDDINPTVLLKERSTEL
Procedure: (§2) Concisely, 100 µL volume of EHNB sample was incubated with 40 µL COX-2 (8 units), or 100 µL α-Glu (6 units) active enzymes. Afterward, the mix solutions were incubated for 45 min and subsequently transferred to a centrifugal ultrafiltration vial 10 kDa cut-off filter membrane. They were initially centrifuged at 10,000 rpm for 10 min (25°C) to withdraw the extra solution followed by three successive centrifugations with 200 µL phosphate-buffered saline (PBS) to wash away the non-binding compounds. Finally, the fixed ligand candidates were fished out from the complex throughout enzyme denaturation with 200 μL of 70% (v/v) aqueous methanol before centrifugation (10,000 rpm, 10 min). The filtrates from three denaturation processes were gathered and dried on nitrogen blowing before reconstitution in 50 μL of aqueous methanol (50%, v/v) for further analytical analysis.
(§3) In this study, the high throughput ligand screening bio-affinity ultrafiltration UPLC/QTOF-MS targeting α-Glu and COX-2 has been utilized to fish out these key hypoglycemic and anti-inflammatory chemicals. […] Based on the comparison of peak areas of the chromatograms obtained from the sample incubated with the active enzyme and that of the denatured group, the relative binding of each candidate was assessed via the specific binding value calculated from the equation: Specific binding (SB)=Aactive/Ainactive

α-glucosidase (α-Glu) = α-glucosidase (α-Glu) (Saccharomyces cerevisiae, UniProt P53341); experiment: Bio-affinity ultrafiltration UPLC/QTOF-MS with α-Glu; details: SB = Aactive/Ainactive, ligands from EHNB
Procedure: as §2, §3

COX-2 [3] = target: T1, COX-2; experiment: In vitro COX-2 inhibition assay (inhibitor screening kit); assay type: biochemical; parameters: purchased Beyotime Biotechnology (Shanghai, China) S0168
Procedure: In brief, the working solutions including COX-2 cofactor, COX-2 enzyme solution, COX-2 substrate, and COX-2 probe were first prepared in accordance with the supplier manual, which were subsequently diluted ten times with the buffer kit assay. Thereafter, 150 µL Tris-HCl (pH 7.8), 10 µL of COX-2 cofactor, and 10 µL of work solution excluding the blank group were mixed in a 96 well black plate. […] After a 10 min incubation at 37°C, the reaction was initiated with 10 µL of COX-2 probe and 10 µL of COX-2 substrate. Finally, their relative fluorescence unit (RFU) was read from an excitation wavelength of 560 nm and an emission wavelength of 590 nm, after 20 min of incubation (37°C).
With RFU 100% enzyme , RFU sample , and RFU blank control represent the relative fluorescence value of the intact enzyme, samples and blank control respectively. The experiment was conducted in triplicates and the IC50 values were expressed into mean ± standard deviation.

[4] = Ferric reducing antioxidant power (FRAP) assay; details: mean ± SD, n = 3
Procedure: The ferric […] behavior using the ferric reducing antioxidant power (FRAP) assay was conducted based on a priorly reported method by our research group ([Rakotondrabe et al., 2022]).

[5] = ABTS free radical scavenging assay; details: mean ± SD, n = 3
Procedure: as §1

α-glucosidase (α-Glu), sequence (P53341 whole entry): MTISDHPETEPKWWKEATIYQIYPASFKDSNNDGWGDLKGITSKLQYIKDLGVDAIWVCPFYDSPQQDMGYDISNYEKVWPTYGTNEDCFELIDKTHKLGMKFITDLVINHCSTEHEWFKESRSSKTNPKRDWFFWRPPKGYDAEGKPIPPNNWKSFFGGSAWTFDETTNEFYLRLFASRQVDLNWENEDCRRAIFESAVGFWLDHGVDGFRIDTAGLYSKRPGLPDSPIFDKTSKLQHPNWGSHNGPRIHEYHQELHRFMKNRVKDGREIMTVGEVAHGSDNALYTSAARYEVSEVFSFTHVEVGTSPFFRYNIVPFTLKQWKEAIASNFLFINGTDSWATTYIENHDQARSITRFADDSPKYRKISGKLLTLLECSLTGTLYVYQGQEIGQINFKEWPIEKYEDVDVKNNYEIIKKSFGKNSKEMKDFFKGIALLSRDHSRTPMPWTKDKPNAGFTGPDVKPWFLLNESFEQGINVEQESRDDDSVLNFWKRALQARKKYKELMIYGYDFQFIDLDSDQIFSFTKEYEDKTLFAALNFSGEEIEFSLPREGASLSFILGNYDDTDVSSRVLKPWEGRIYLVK

Compound	IC50 DPPH [1]	COX-2 SB (specific binding) (COX-2 [2])	α-Glu SB (specific binding) (α-glucosidase (α-Glu))	FRAP [4]	IC50 ABTS [5]	also measured
Cc1cc(C(C)(C)C)c(O)c(C(C)(C)C)c1 [BHT, butylated hydroxytoluene]	10.82 ± 0.37^c µg/ml					
O=c1oc2c(O)c(O)cc3c(=O)oc4c(O)c(O)cc1c4c23 [Compound 4, Ellagic acid]		1.05	1.28			
O=c1c(O[C@@H]2O[C@H](CO)[C@@H](O)[C@H](O)[C@H]2O)c(-c2ccc(O)cc2)oc2cc(O)cc(O)c12 [Compound 6, Astragalin (Kaempferol-3-O-glucoside)]		1.36	1.32			IC50 (COX-2 [3]; validation with pure compounds, Figure 6B, read-out: COX-2 IC50): 49.1 ± 1.49 µM
O=c1cc(-c2ccc(O)cc2)oc2c([C@@H]3O[C@H](CO)[C@@H](O)[C@H](O)[C@H]3O)c(O)cc(O)c12 [Compound 8, Vitexin (Apigenin 8-C-glucoside)]		1.32	1.26			IC50 (COX-2 [3]): 27.9 ± 1.74 µM
Cc1c(C)c2c(c(C)c1O)CCC(C)(C(=O)O)O2 (centres unmarked) [Trolox]				1.79 ± 0.01 mM Fe^2+/g and 1.79 ± 0.01^b mM Fe^2+/g	6.15 ± 0.98^d µg/ml	
O=C1O[C@H]([C@@H](O)CO)C(O)=C1O [Vit C, ascorbic acid]	3.35 ± 0.12^f µg/ml			2.04 ± 0.01 mM Fe^2+/g and 2.04 ± 0.01^a mM Fe^2+/g	4.18 ± 0.06^e µg/ml	
